# Laboratory results taken from patent US7109245B2, “Vasoconstrictor cannabinoid analogs” (priority 2001, dated 2006).
# Entries after “also recorded” stand apart in the source; their conditions may differ. Read-outs that look alike come from different tables or passages of the source.
# Assays:
# ICR mice = assay: Blood pressure of pentobarbital-anesthetized ICR mice (femoral artery cannula); assay type: in vivo, mouse
# Text: By way of example, ICR mice were anesthetized with pentobarbital, and polyethylene cannulae were inserted into the femoral artery and vein for monitoring blood pressure and injecting drugs, respectively. Blood pressure was monitored directly by connecting the arterial cannula to a pressure transducer and physiograph.
# [1] = tested on: Rat isolated mesenteric branch arteries; assay: Vasorelaxation of rat isolated mesenteric branch arteries precontracted with phenylephrine, wire myograph
# Experimental: Arteries were mounted in a wire myograph, and precontracted with phenylephrine. Relaxation is expressed as % of the phenylephrine-induced vasoconstrictor tone, 0% representing maximal relaxation.
# Rat isolated mesenteric branch arteries (˜200 μm in diameter) were precontracted with phenylephrine and measurements were recorded with a wire myograph.
# mesenteric arteries [2] = assay: Mesenteric vasodilator response
# mesenteric arteries [3] = conditions: cited from earlier work; for dilation of isolated mesenteric arteries: normal rats and mice, CB1 knockout and CB1/CB2 double knockout mice
# [4] = target: brain cannabinoid (CB1) receptor (Homo sapiens, UniProt P21554); conditions: cited from earlier work
# brain cannabinoid (CB1) receptor, sequence (P21554 whole entry, species assumed): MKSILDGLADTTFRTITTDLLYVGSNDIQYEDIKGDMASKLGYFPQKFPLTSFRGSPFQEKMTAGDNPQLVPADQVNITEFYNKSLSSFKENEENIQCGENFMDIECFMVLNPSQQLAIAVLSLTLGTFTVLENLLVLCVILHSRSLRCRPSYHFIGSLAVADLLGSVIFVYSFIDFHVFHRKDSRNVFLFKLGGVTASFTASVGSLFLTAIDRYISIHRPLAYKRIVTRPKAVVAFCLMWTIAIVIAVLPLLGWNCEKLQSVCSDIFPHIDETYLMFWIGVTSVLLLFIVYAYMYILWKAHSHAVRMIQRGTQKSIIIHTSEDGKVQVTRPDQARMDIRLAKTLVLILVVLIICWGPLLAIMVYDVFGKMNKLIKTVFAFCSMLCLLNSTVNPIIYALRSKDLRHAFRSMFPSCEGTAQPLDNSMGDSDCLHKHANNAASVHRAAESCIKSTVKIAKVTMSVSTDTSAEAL
# rats and mice = conditions: in vivo; cited from earlier work
# [5] = tested on: normal rats and mice, CB1 knockout mice, CB1/CB2 double knockout mice; conditions: cited from earlier work
# LPS-induced hypotension = LPS-induced hypotension in anesthetized mice; assay type: in vivo, mouse
# Text: Endotoxin was used to induce hypotension in control mice as well as in mice deficient in CB1 or both CB1 and CB2 receptors.
# [6] = tested on: mesenteric branch arteries isolated from wild-type and CB1 receptor deficient mice; assay: Calcium-induced relaxation of mouse isolated mesenteric branch arteries precontracted with norepinephrine; conditions: 10 μM O-1918
compound,measurement,setting,value
"C=C(C)[C@@H]1CCC(C)=C[C@H]1c1c(O)cc(O)cc1CCCCC [Abn-cbd, abnormal cannabidiol]",effect on blood pressure,ICR mice; intravenous injection of 10 mg/kg Abn-cbd,"transient drop in blood pressure followed by a brief increase and then a more prolonged, significant decrease in pressure"
same,type of agonism in vasorelaxation,[1],full agonist
same,EC50,"[1]; Abn-cbd alone, read-out: vasorelaxation EC50",3.3 ± 0.5 µM
same,EC50,"[1]; in the presence of 10 μM O-1918, read-out: vasorelaxation EC50 in the presence of O-1918",26 ± 10 µM
same,vasodilator response in presence of L-NAME and indomethacin,mesenteric arteries [2]; 100 μM L-NAME and 10 μM indomethacin,remains unchanged
same,vasodilation in presence of capsazepine,"mesenteric arteries [2]; bolus injection of 4 mg Abn-cbd, 5 μM capsazepine",elicited the same long lasting vasodilation
same,dilation of isolated mesenteric arteries,mesenteric arteries [3],dilate isolated mesenteric arteries
same,binding to CB1 receptor,[4],does not bind to CB1 receptors
same,neurobehavioral effects,rats and mice,does not elicit cannabinoid-like neurobehavioral effects
same,effect on blood pressure,"[5]; normal rats and mice, CB1 knockout and CB1/CB2 double knockout mice",lower blood pressure
CCCCCCC(C)(C)c1cc(O)c2c(c1)OC(C)(C)[C@@H]1CC=C(CO)C[C@@H]21 [HU-210],hypotensive effect in CB1 receptor deficient mice,[5]; CB1 receptor deficient mice,absent
C=C(C)C1CCC(C)=CC1c1c(OC)cc(C)cc1OC (stereo not shown) [O-1918],antagonism of hypotensive effect of Abn-cbd,"ICR mice; 10 mg/kg O-1918, 10 min before 10 mg/kg Abn-cbd, FIG. 1A",the prolonged hypotensive phase of the effect of Abn-cbd was absent
same,effect on blood pressure of the antagonist alone,ICR mice; 10 mg/kg O-1918 injected alone,did not influence blood pressure
same,antagonism of hypotensive effect of HU-210 (CB1/CB2 agonist),ICR mice; FIG. 1B,did not antagonize the hypotensive effect of HU-210
same,prevention of LPS-induced hypotension,"LPS-induced hypotension; 10 mg/kg O-1918, normal anesthetized mice, 100 mg/kg LPS",prevent the hypotension
same,inhibition of LPS-induced hypotension,"LPS-induced hypotension; pretreatment 1 to 10 mg/kg O-1918, ICR mice, 100 ng/kg LPS i.v., FIG. 3",dose-dependently inhibited
same,inhibition of calcium-induced relaxation,[6],inhibited the calcium-induced relaxation
same,inhibition of vasorelaxation caused by CGRP,[1]; 10 μM O-1918,did not inhibit the vasorelaxation
same,inhibition of vasorelaxation caused by carbachol,[1]; 10 μM O-1918,did not inhibit the vasorelaxation
same,effect on vascular tone,[1]; concentrations up to 30 μM,did not alter vascular tone
same,shift of dose-response curve to Abn-cbd,"[1]; preincubation with 1–10 μM O-1918, FIG. 4",progressively right-shifted; also recorded: concentration-dependent inhibition of the relaxing effect of Abn-cbd
Cc1c(C(=O)NN2CCCCC2)nn(-c2ccc(Cl)cc2Cl)c1-c1ccc(Cl)cc1 [SR141716A],inhibition of LPS-induced hypotension,"LPS-induced hypotension; pretreatment 3 mg/kg SR141716A, wild-type mice, CB1 deficient and CB1/CB2 deficient mice, FIG. 2",inhibited; also recorded: could be prevented
C=C(C)[C@@H]1CCC(C)=C[C@H]1c1c(O)cc(CCCCC)cc1O [cannabidiol],antagonism of vasodilator effect of Abn-cbd,mesenteric arteries [3]; mesenteric,able to antagonize the vasodilator effect of Abn-cbd
same,dilation of isolated mesenteric arteries,mesenteric arteries [3],does not elicit mesenteric vasodilation
same,neurobehavioral effects,rats and mice,devoid of neurobehavioral effects
